{"source": "paper PMC4559881", "about": "(Molecular Neurodegeneration, 2015)", "key": {"[1]": {"test": "Pharmacokinetics after i.v. and oral application, rat"}, "wtAPP CHO cells": {"tested_on": "wtAPP CHO cells", "test": "Release of APP metabolites from wild-type human APP751 CHO cells", "conditions": "Cricetulus griseus, 24 h"}, "[2]": {"test": "Dog PK/PD study: NB-360 exposure in blood and CSF", "type": "in vivo", "conditions": "male, Beagle, blood, po, 0.5 mg/kg p.o."}, "[3]": {"test": "Pharmacokinetics after i.v. and oral application, mouse"}, "[4]": {"test": "Dissociation constant (pKa)", "type": "physicochemical"}, "APP51/16 transgenic mice [5]": {"tested_on": "APP51/16 transgenic mice", "test": "Chronic 6-week treatment of APP51/16 mice: APP metabolites, Aβ deposition and neuroinflammation", "type": "in vivo, mouse", "conditions": "for CSF Aβ40 reduction / CSF Aβ42 reduction: 100 μmol/kg/d 6 weeks", "description": "Frozen rodent forebrains were homogenized in 9 volumes of ice-cold Tris-buffered saline (pH 7.4) containing Complete protease inhibitor cocktail (Roche Diagnostics, Penzberg, Germany) using a Sonifier 450 (Branson) and stored in aliquots at -80 °C. Triton X-100 soluble Aβ was extracted by mixing 50 μl 2 % Triton X-100 with 50 μl homogenate, incubating for 15 min on ice with vortexing, followed by ultracentrifugation at 100000xg for 15 min. The clear supernatant was diluted to a final forebrain dilution of 1:100 and used for analysis. For the extraction of insoluble amyloid peptides, 50 μl forebrain homogenate was mixed with 117 μl of 100 % formic acid and stored on ice for 15 min with vortexing. Samples were neutralized with 950 μl 1 M Tris base, containing Complete protease inhibitor cocktail (Roche, Basle, Switzerland) and stored overnight at room temperature. The supernatant after 15 min centrifugation at 14000 rpm was used for analysis.\n(§1) Aβ38, 40 and 42 were determined using the electro-chemiluminescence immuno assay kits from Meso Scale Discovery (Rockville, MD, USA) in either singlet or triplex format. Samples and standards were prepared according to the manufactures protocols. The kit based on the antibody 4G8 was used for rat forebrain and CSF samples, and kits based on 6E10 were used for dog CSF or plasma and APP51/16 brain and CSF samples. Soluble APPα and sAPPβ from APP51/16 mice were determined from the 100000xg supernatant and analyzed with Meso Scale Discovery commercial kits. C-terminal fragments C83 and C99 were determined from Western blots. Forebrain homogenates dephosphorylated with lambda protein phosphatase as described and run on a 10 % Tris-bicine gel with 8 M urea. After transfer to Immobilon P membranes (Bio-Rad Bedford MA USA), bands were probed with APP C8 antibody (recognizing the C-terminus of APP) and detected with goat anti-mouse IgG Fab fragment AlexaFluor680 (Invitrogen). The same gel was used to visualize Aβ1-38, 1-40, and 1-42 using the N-terminal antibody beta1 and goat anti rabbit IgG IRdye 800CW (Odyssey). Full-length human APP was detected using an in house immunoassay based on the MSD ECL system as described."}, "Aβ40": {"tested_on": "Aβ40", "test": "Dog PK/PD study: Aβ40 in CSF and plasma", "type": "in vivo", "description": "The mean (± SD) level of Aβ40 in the CSF prior to dosing was 5991 ± 1199 pg/ml (2 sampling times -24 h and -1 h, n = 7), and the predose plasma Aβ40 level was 261 ± 13 pg/ml (mean ± SD, n = 4, -1 h). […] All dogs responded strongly to the treatment, CSF Aβ40 was reduced by approximately 80 % from 12 to 48 h post dose and slowly returned to baseline (Fig. 3b). […] Furthermore, the available data were used for a calculation of the Aβ40 clearance rate from dog CSF.\nas §1"}, "SweAPP CHO cells": {"tested_on": "SweAPP CHO cells", "test": "Aβ40 release from Swedish human APP751 CHO cells", "conditions": "Cricetulus griseus, 24 h, read-out: IC50 Aβ40 release"}, "APP51/16 transgenic mice [6]": {"tested_on": "APP51/16 transgenic mice", "test": "Chronic 6-week treatment of APP51/16 mice: APP metabolites, Aβ deposition and neuroinflammation", "type": "in vivo, mouse", "conditions": "relative to vehicle-treated mice"}, "[7]": {"conditions": "male, Sprague Dawley, blood, iv, 2 umol/kg"}, "[8]": {"conditions": "approximate area under the effect curve, 0, 4, 24 h after last dose"}}, "note": "Where two headings read alike, the source gives them in different places.", "data": [{"compound": "Cc1cc(C#N)cnc1C(=O)Nc1ccc(F)c([C@]2(C)CO[C@@](C)(C(F)(F)F)C(N)=N2)c1", "note": "[NB-360]", "values": [{"measurement": "Vol. of Distribution", "setting": "[1]; 2 μmol/kg i.v.", "result": 10.2, "unit": "L/kg"}, {"measurement": "clearance", "setting": "[1]; [7]", "result": 52, "unit": "mL/min/kg"}, {"measurement": "half-life", "setting": "[1]; [7]", "result": 2.7, "unit": "h"}, {"measurement": "bioavailability", "setting": "[1]; male, Sprague Dawley, blood, po, 6 umol/kg", "result": 92, "unit": "%"}, {"measurement": "IC50", "setting": "wtAPP CHO cells; read-out: IC50 Aβ40 release", "result": 3, "unit": "nM"}, {"measurement": "IC50", "setting": "wtAPP CHO cells; read-out: IC50 Aβ42 release", "result": 3, "unit": "nM"}, {"measurement": "IC50", "setting": "wtAPP CHO cells; read-out: IC50 sAPPβ release", "result": 4, "unit": "nM"}, {"measurement": "concentration at 168 h", "setting": "[2]", "result": "23 ± 31", "unit": "nM"}, {"measurement": "clearance", "setting": "[3]; C57BL6, mouse, blood, iv, 2 umol/kg", "result": 16, "unit": "mL/min/kg"}, {"measurement": "bioavailability", "setting": "[3]; C57BL6, mouse, blood, po, 6 umol/kg", "result": 37, "unit": "%"}, {"measurement": "Terminal half-life after i.v. application", "setting": "[3]; mouse, 2 μmol/kg i.v.", "result": 3.6, "unit": "h"}, {"measurement": "Vol. of Distribution", "setting": "[3]; mouse, 2 μmol/kg i.v.", "result": 4.6, "unit": "L/kg"}, {"measurement": "pKa", "setting": "[4]", "result": 7.1}, {"measurement": "CSF Aβ40 reduction", "setting": "APP51/16 transgenic mice [5]; 4 h after the dose", "result": "> 90", "unit": "%"}, {"measurement": "CSF Aβ42 reduction", "setting": "APP51/16 transgenic mice [5]; 4 h after the dose", "result": "> 90", "unit": "%"}, {"measurement": "CSF Aβ40 reduction", "setting": "APP51/16 transgenic mice [5]; 24 h", "result": "about 60%"}, {"measurement": "CSF Aβ42 reduction", "setting": "APP51/16 transgenic mice [5]; 24 h", "result": "about 60%"}, {"measurement": "C99 reduction in Triton TX-100 forebrain extract", "setting": "APP51/16 transgenic mice [5]; 4 h after the last dose", "result": "about 80%"}, {"measurement": "sAPPβ reduction in Triton TX-100 forebrain extract", "setting": "APP51/16 transgenic mice [5]; 4 h after the last dose", "result": "about 80%"}, {"measurement": "C99 reduction in Triton TX-100 forebrain extract", "setting": "APP51/16 transgenic mice [5]; 24 h after the last dose", "result": 57, "unit": "%"}, {"measurement": "sAPPβ reduction in Triton TX-100 forebrain extract", "setting": "APP51/16 transgenic mice [5]; 24 h after the last dose", "result": 70, "unit": "%"}, {"measurement": "Formic-acid extracted Aβ 1-38 in forebrain homogenate", "setting": "APP51/16 transgenic mice [5]; NB-360 group, Mean ± SEM, N 14", "result": "77.0 ± 24.9", "unit": "pmol/g forebrain"}, {"measurement": "Formic-acid extracted Aβ 1-40 in forebrain homogenate", "setting": "APP51/16 transgenic mice [5]; NB-360 group, Mean ± SEM, N 14", "result": "197.3 ± 43.4", "unit": "pmol/g forebrain"}, {"measurement": "Formic-acid extracted Aβ 1-42 in forebrain homogenate", "setting": "APP51/16 transgenic mice [5]; NB-360 group, Mean ± SEM, N 14", "result": "106.6 ± 20.9", "unit": "pmol/g forebrain"}, {"measurement": "Plasma Aβ40 reduction, AUEC24h", "setting": "APP51/16 transgenic mice [5]; approximate area under the effect curve after last dose", "result": 70, "unit": "%"}, {"measurement": "CSF Aβ40 reduction, AUEC24h", "setting": "APP51/16 transgenic mice [5]; [8]", "result": "approximately 75%"}, {"measurement": "CSF Aβ42 reduction, AUEC24h", "setting": "APP51/16 transgenic mice [5]; [8]", "result": "approximately 75%"}, {"measurement": "CSF sAPPβ reduction, AUEC24h", "setting": "APP51/16 transgenic mice [5]; [8]", "result": "approximately 75%"}, {"measurement": "C83 average increase above vehicle control", "setting": "APP51/16 transgenic mice [5]; forebrain extract, 4 and 24 h", "result": 50, "unit": "%"}, {"measurement": "sAPPα average increase above vehicle control", "setting": "APP51/16 transgenic mice [5]; forebrain extract, 4 and 24 h", "result": 50, "unit": "%"}, {"measurement": "Aβ 1-38, NB-360 group, change vs baseline", "setting": "APP51/16 transgenic mice [5]; formic-acid extract", "result": -33.5, "unit": "% p = 0.39"}, {"measurement": "Aβ 1-38, NB-360 group, change vs vehicle", "setting": "APP51/16 transgenic mice [5]; formic-acid extract", "result": -68.0, "unit": "% p = 0.015"}, {"measurement": "Aβ 1-40, NB-360 group, change vs baseline", "setting": "APP51/16 transgenic mice [5]; formic-acid extract", "result": -16.1, "unit": "% p = 0.52"}, {"measurement": "Aβ 1-40, NB-360 group, change vs vehicle", "setting": "APP51/16 transgenic mice [5]; formic-acid extract", "result": -64.5, "unit": "% p = 0.003"}, {"measurement": "Aβ 1-42, NB-360 group, change vs vehicle", "setting": "APP51/16 transgenic mice [5]; formic-acid extract", "result": -69.3, "unit": "% p = 0.0006"}, {"measurement": "number of Aβ deposits (large plaques, small plaques, granules) per 3 cortical sections", "setting": "APP51/16 transgenic mice [5]; irrespective of the deposit size", "result": "indistinguishable from baseline"}, {"measurement": "total area of cortical region of interest stained positively for NT12", "setting": "APP51/16 transgenic mice [5]; mean ± SEM, p = 0.093 vs baseline, p <0.0001 vs vehicle", "result": "0.209 ± 0.054", "unit": "%"}, {"measurement": "number of Iba-1 positive cell clusters in the cortex", "setting": "APP51/16 transgenic mice [5]; relative to vehicle-treated mice", "result": "substantially lower"}, {"measurement": "time to reach the maximum effect on CSF Aβ", "setting": "Aβ40; 1.1 μmol/kg (0.5 mg/kg)", "result": "around 12 h"}, {"measurement": "time at which CSF Aβ40 reached baseline", "setting": "Aβ40; 0.5 mg/kg p.o.", "result": "about 120 h"}, {"measurement": "Plasma Aβ40 change", "setting": "Aβ40; 0.5 mg/kg p.o., after 1 h", "result": -42, "unit": "%"}, {"measurement": "Plasma Aβ40 change", "setting": "Aβ40; 0.5 mg/kg p.o., after 12 h", "result": -70, "unit": "%"}, {"measurement": "CSF Aβ40 reduction", "setting": "Aβ40; 0.5 mg/kg p.o., from 12 to 48 h post dose", "result": "approximately 80%"}, {"measurement": "IC50", "setting": "Aβ40; Canis lupus familiaris, read-out: in vivo IC50 of NB-360 in blood for the reduction of Aβ40 in CSF, PK/PD modelling", "result": "59 ± 13", "unit": "nM"}, {"measurement": "Aβ reduction, approximate area under the effect curve over a 24 h period", "setting": "Aβ40; from the values at 12 and 36 h", "result": "70-75%"}, {"measurement": "IC50", "setting": "SweAPP CHO cells", "result": 33, "unit": "nM"}, {"measurement": "number of GFAP positive cell clusters in the cortex", "setting": "APP51/16 transgenic mice [6]", "result": "substantially lower"}]}]}
